Converted amounts (≈) assume the structure as drawn. One block for each compound: values may come before it.
Tests used:
[1] = Solubility of the compound in water at pH 7; type: physicochemical
Staphylococcus aureus [2] = assay: Antibacterial activity against Staphylococcus aureus ATCC 4163 after 18 hrs by serial microdilution method; type: functional; settings: ATCC 4163, 18 h
[3] = test system: Staphylococcus epidermidis; assay: Antibacterial activity against Staphylococcus epidermidis ATCC 49134 after 18 hrs by serial microdilution method; type: functional; settings: ATCC 49134, 18 h
[4] = test system: Staphylococcus epidermidis; assay: Antibacterial activity against Staphylococcus epidermidis ATCC 12228 after 18 hrs by serial microdilution method; type: functional; settings: ATCC 12228, 18 h
[5] = Octanol-water partition coefficient, log P of the compound by UV-vis method; type: physicochemical
Staphylococcus aureus [6] = assay: Antibacterial activity against Staphylococcus aureus ATCC 25923 after 18 hrs by serial microdilution method; type: functional; settings: ATCC 25923, 18 h
Staphylococcus aureus [7] = assay: Antibacterial activity against Staphylococcus aureus ATCC 6538 after 18 hrs by serial microdilution method; type: functional; settings: ATCC 6538, 18 h
[8] = test system: Staphylococcus epidermidis; assay: Antibacterial activity against Staphylococcus epidermidis ATCC 12228 after 18 hrs by serial microdilution method in presence of 2-chlorobenzylamine; type: functional; settings: ATCC 12228, 18 h
[9] = test system: Staphylococcus epidermidis; assay: Antibacterial activity against Staphylococcus epidermidis ATCC 49134 after 18 hrs by serial microdilution method in presence of isoniazid; type: functional; settings: ATCC 49134, 18 h
Staphylococcus aureus [10] = assay: Antibacterial activity against Staphylococcus aureus ATCC 4163 after 18 hrs by serial microdilution method in presence of 4-fluorobenzylamine; type: functional; settings: ATCC 4163, 18 h
Staphylococcus aureus [11] = assay: Antibacterial activity against Staphylococcus aureus ATCC 25923 after 18 hrs by serial microdilution method in presence of isoniazid; type: functional; settings: ATCC 25923, 18 h
[12] = test system: Staphylococcus epidermidis; assay: Antibacterial activity against Staphylococcus epidermidis ATCC 12228 after 18 hrs by serial microdilution method in presence of histamine; type: functional; settings: ATCC 12228, 18 h
[13] = test system: Staphylococcus epidermidis; assay: Antibacterial activity against Staphylococcus epidermidis ATCC 49134 after 18 hrs by serial microdilution method in presence of 4-fluorobenzylamine; type: functional; settings: ATCC 49134, 18 h
Staphylococcus aureus [14] = assay: Antibacterial activity against Staphylococcus aureus ATCC 25923 after 18 hrs by serial microdilution method in presence of 4-fluorobenzylamine; type: functional; settings: ATCC 25923, 18 h
Staphylococcus aureus [15] = assay: Antibacterial activity against Staphylococcus aureus ATCC 25923 after 18 hrs by serial microdilution method in presence of histamine; type: functional; settings: ATCC 25923, 18 h
Staphylococcus aureus [16] = assay: Antibacterial activity against Staphylococcus aureus ATCC 4163 after 18 hrs by serial microdilution method in presence of histamine; type: functional; settings: ATCC 4163, 18 h
Staphylococcus aureus [17] = assay: Antibacterial activity against Staphylococcus aureus ATCC 4163 after 18 hrs by serial microdilution method in presence of 2-chlorobenzylamine; type: functional; settings: ATCC 4163, 18 h
Staphylococcus aureus [18] = assay: Antibacterial activity against Staphylococcus aureus ATCC 6538 after 18 hrs by serial microdilution method in presence of isoniazid; type: functional; settings: ATCC 6538, 18 h
Staphylococcus aureus [19] = assay: Antibacterial activity against Staphylococcus aureus ATCC 6538 after 18 hrs by serial microdilution method in presence of histamine; type: functional; settings: ATCC 6538, 18 h
Staphylococcus aureus [20] = assay: Antibacterial activity against Staphylococcus aureus ATCC 4163 after 18 hrs by serial microdilution method in presence of isoniazid; type: functional; settings: ATCC 4163, 18 h
[21] = test system: Staphylococcus epidermidis; assay: Antibacterial activity against Staphylococcus epidermidis ATCC 49134 after 18 hrs by serial microdilution method in presence of 2-chlorobenzylamine; type: functional; settings: ATCC 49134, 18 h
[22] = test system: Staphylococcus epidermidis; assay: Antibacterial activity against Staphylococcus epidermidis ATCC 12228 after 18 hrs by serial microdilution method in presence of 4-fluorobenzylamine; type: functional; settings: ATCC 12228, 18 h
Staphylococcus aureus [23] = assay: Antibacterial activity against Staphylococcus aureus ATCC 6538 after 18 hrs by serial microdilution method in presence of 2-chlorobenzylamine; type: functional; settings: ATCC 6538, 18 h
[24] = test system: Staphylococcus epidermidis; assay: Antibacterial activity against Staphylococcus epidermidis ATCC 12228 after 18 hrs by serial microdilution method in presence of isoniazid; type: functional; settings: ATCC 12228, 18 h
Staphylococcus aureus [25] = assay: Antibacterial activity against Staphylococcus aureus ATCC 6538 after 18 hrs by serial microdilution method in presence of 4-fluorobenzylamine; type: functional; settings: ATCC 6538, 18 h
[26] = test system: Staphylococcus epidermidis; assay: Antibacterial activity against Staphylococcus epidermidis ATCC 49134 after 18 hrs by serial microdilution method in presence of histamine; type: functional; settings: ATCC 49134, 18 h
Staphylococcus aureus [27] = assay: Antibacterial activity against Staphylococcus aureus ATCC 25923 after 18 hrs by serial microdilution method in presence of 2-chlorobenzylamine; type: functional; settings: ATCC 25923, 18 h

solubility [1]: 1200 µg/mL (≈ 1230 µM)
MIC (Staphylococcus aureus [2]): 4 µg/mL (≈ 4.11 µM)
MIC [3]: 2 µg/mL (≈ 2.06 µM)
MIC [4]: 2 µg/mL (≈ 2.06 µM)
logP [5]: -0.54
MIC (Staphylococcus aureus [6]): > 4 µg/mL
MIC (Staphylococcus aureus [7]): 4 µg/mL (≈ 4.11 µM)
SMILES: CO[C@H]1/C=C/O[C@@]2(C)Oc3c(C)c(O)c4c(O)c(c(CN5CCOCCOCCOCCOCCOCC5)c(O)c4c3C2=O)NC(=O)/C(C)=C\C=C\[C@H](C)[C@H](O)[C@@H](C)[C@@H](O)[C@@H](C)[C@H](OC(C)=O)[C@@H]1C

MIC [8]: 0.25 µg/mL
MIC [9]: 0.25 µg/mL
MIC (Staphylococcus aureus [10]): 0.5 µg/mL
MIC (Staphylococcus aureus [11]): 1 µg/mL
MIC [12]: 1.25 µg/mL
MIC [13]: 0.25 µg/mL
MIC (Staphylococcus aureus [2]): 2 µg/mL (≈ 2.01 µM)
MIC [3]: 0.5 µg/mL (≈ 0.503 µM)
MIC (Staphylococcus aureus [14]): 0.5 µg/mL
MIC (Staphylococcus aureus [15]): 0.125 µg/mL
MIC (Staphylococcus aureus [16]): 0.125 µg/mL
MIC (Staphylococcus aureus [17]): 0.5 µg/mL
MIC (Staphylococcus aureus [18]): 1 µg/mL
MIC [4]: 0.5 µg/mL (≈ 0.503 µM)
MIC (Staphylococcus aureus [19]): 0.125 µg/mL
MIC (Staphylococcus aureus [20]): 1 µg/mL
MIC [21]: 0.25 µg/mL
logP [5]: 0.2
MIC [22]: 0.25 µg/mL
MIC (Staphylococcus aureus [6]): 2 µg/mL (≈ 2.01 µM)
MIC (Staphylococcus aureus [23]): 0.5 µg/mL
MIC (Staphylococcus aureus [7]): 2 µg/mL (≈ 2.01 µM)
MIC [24]: 0.25 µg/mL
MIC (Staphylococcus aureus [25]): 0.5 µg/mL
MIC [26]: 0.125 µg/mL
MIC (Staphylococcus aureus [27]): 0.5 µg/mL
SMILES: CO[C@H]1/C=C/O[C@@]2(C)Oc3c(C)c(O)c4c(O)c(c(CNc5ccc6c(c5)OCCOCCOCCOCCO6)c(O)c4c3C2=O)NC(=O)/C(C)=C\C=C\[C@H](C)[C@H](O)[C@@H](C)[C@@H](O)[C@@H](C)[C@H](OC(C)=O)[C@@H]1C

MIC [8]: 0.25 µg/mL
solubility [1]: < 50 µg/mL
MIC [9]: 0.5 µg/mL
MIC (Staphylococcus aureus [10]): 0.25 µg/mL
MIC (Staphylococcus aureus [11]): 1 µg/mL
MIC [12]: 1.25 µg/mL
MIC [13]: 0.25 µg/mL
MIC (Staphylococcus aureus [2]): 2 µg/mL (≈ 1.84 µM)
MIC [3]: 0.5 µg/mL (≈ 0.461 µM)
MIC (Staphylococcus aureus [14]): 0.25 µg/mL
MIC (Staphylococcus aureus [15]): 0.125 µg/mL
MIC (Staphylococcus aureus [16]): 0.125 µg/mL
MIC (Staphylococcus aureus [17]): 0.25 µg/mL
MIC (Staphylococcus aureus [18]): 1 µg/mL
MIC [4]: 0.5 µg/mL (≈ 0.461 µM)
MIC (Staphylococcus aureus [19]): 0.125 µg/mL
MIC (Staphylococcus aureus [20]): 1 µg/mL
MIC [21]: 0.25 µg/mL
logP [5]: 1.12
MIC [22]: 0.25 µg/mL
MIC (Staphylococcus aureus [6]): 2 µg/mL (≈ 1.84 µM)
MIC (Staphylococcus aureus [23]): 0.25 µg/mL
MIC (Staphylococcus aureus [7]): 1 µg/mL (≈ 0.921 µM)
MIC [24]: 0.5 µg/mL
MIC (Staphylococcus aureus [25]): 0.25 µg/mL
MIC [26]: 0.125 µg/mL
MIC (Staphylococcus aureus [27]): 0.25 µg/mL
SMILES: CO[C@H]1/C=C/O[C@@]2(C)Oc3c(C)c(O)c4c(O)c(c(CNc5ccc6c(c5)OCCOCCOc5ccccc5OCCOCCO6)c(O)c4c3C2=O)NC(=O)/C(C)=C\C=C\[C@H](C)[C@H](O)[C@@H](C)[C@@H](O)[C@@H](C)[C@H](OC(C)=O)[C@@H]1C

SMILES: [Li+].[O-][Cl+3]([O-])([O-])[O-]
MIC (Staphylococcus aureus [2]): > 4 µg/mL
MIC [3]: > 4 µg/mL
MIC [4]: > 4 µg/mL
MIC (Staphylococcus aureus [6]): > 4 µg/mL
MIC (Staphylococcus aureus [7]): > 4 µg/mL

SMILES: NCCc1c[nH]cn1 [HISTAMINE]
MIC (Staphylococcus aureus [2]): > 4 µg/mL
MIC [3]: > 4 µg/mL
MIC [4]: > 4 µg/mL
MIC (Staphylococcus aureus [6]): > 4 µg/mL
MIC (Staphylococcus aureus [7]): > 4 µg/mL

MIC (Staphylococcus aureus [2]): > 4 µg/mL
MIC [3]: > 4 µg/mL
MIC [4]: > 4 µg/mL
MIC (Staphylococcus aureus [6]): > 4 µg/mL
MIC (Staphylococcus aureus [7]): > 4 µg/mL
SMILES: NNC(=O)c1ccncc1 [ISONIAZID]

SMILES: CO[C@H]1/C=C/O[C@@]2(C)Oc3c(C)c(O)c4c(O)c(c(/C=N/N5CCN(C)CC5)c(O)c4c3C2=O)NC(=O)/C(C)=C\C=C\[C@H](C)[C@H](O)[C@@H](C)[C@@H](O)[C@@H](C)[C@H](OC(C)=O)[C@@H]1C [RIFAMPIN]
MIC (Staphylococcus aureus [2]): 0.016 µg/mL (≈ 0.0194 µM)
MIC [3]: 0.008 µg/mL (≈ 0.00972 µM)
MIC [4]: 0.008 µg/mL (≈ 0.00972 µM)
MIC (Staphylococcus aureus [6]): 0.016 µg/mL (≈ 0.0194 µM)
MIC (Staphylococcus aureus [7]): 0.016 µg/mL (≈ 0.0194 µM)

SMILES: [Na+].[O-][Cl+3]([O-])([O-])[O-] [SODIUM PERCHLORATE]
MIC (Staphylococcus aureus [2]): > 4 µg/mL
MIC [3]: > 4 µg/mL
MIC [4]: > 4 µg/mL
MIC (Staphylococcus aureus [6]): > 4 µg/mL
MIC (Staphylococcus aureus [7]): > 4 µg/mL
